# Experimental data taken from ChEMBL document CHEMBL5385856, “Novel 1,4,5,6-tetrahydrocyclopenta[d]imidazole-5-carboxamide-based JNK3 inhibitors: Design, synthesis, molecular docking, and therapeutic potential in neurodegenerative diseases” (Eur J Med Chem, 2023).
# The source made the active and inactive calls. The calls are words filed in the database; no cut-off is given here.
# What was measured:
# Cortical neurone = test: cells; settings: Rattus norvegicus, 120 h, read-out: Activity
# [1] = biological target: T1, Mitogen-activated protein kinase 8 (Homo sapiens, UniProt P45983); test: Inhibition of JNK1 (unknown origin) incubated for 20 mins in presence of 33P-ATP
# [2] = biological target: T2, Mitogen-activated protein kinase 10 (Homo sapiens, UniProt P53779); test: Inhibition of JNK3 (unknown origin) using ATF2 as substrate incubated for 40 mins in presence of [gamma33P]ATP by scintillation counting analysis
# [3] = biological target: T3, Mitogen-activated protein kinase 9 (Homo sapiens, UniProt P45984); test: Inhibition of JNK2 (unknown origin) incubated for 20 mins in presence of 33P-ATP
# Target sequence in this assay (P45984 whole entry): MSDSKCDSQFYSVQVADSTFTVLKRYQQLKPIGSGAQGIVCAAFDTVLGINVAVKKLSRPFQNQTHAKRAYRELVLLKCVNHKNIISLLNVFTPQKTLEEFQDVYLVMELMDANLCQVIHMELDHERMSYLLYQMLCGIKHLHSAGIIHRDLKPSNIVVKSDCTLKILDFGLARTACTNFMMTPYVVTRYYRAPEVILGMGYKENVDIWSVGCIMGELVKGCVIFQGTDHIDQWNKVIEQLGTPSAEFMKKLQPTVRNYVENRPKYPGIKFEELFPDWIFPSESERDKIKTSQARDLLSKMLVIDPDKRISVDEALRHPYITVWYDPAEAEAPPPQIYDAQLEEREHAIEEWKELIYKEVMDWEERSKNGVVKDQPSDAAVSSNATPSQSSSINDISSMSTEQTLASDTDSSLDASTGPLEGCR
# [4] = biological target: T4, Mitogen-activated protein kinase 14 (Homo sapiens, UniProt Q16539); test: Inhibition of p38alpha (unknown origin) incubated for 20 mins in presence of 33P-ATP
# [5] = biological target: Glycogen synthase kinase-3 beta (Homo sapiens, UniProt P49841); test: Inhibition of GSK3beta (unknown origin) incubated for 20 mins in presence of 33P-ATP
# [6] = biological target: T2, Mitogen-activated protein kinase 10; test: Inhibition of JNK3 (unknown origin) at 1 uM relative to control
# [7] = biological target: T3, Mitogen-activated protein kinase 9; test: Inhibition of JNK2 (unknown origin) at 1 uM relative to control
# Target sequence in this assay (P45984 whole entry, looked up): as the sequence (P45984 whole entry) above
# [8] = biological target: T1, Mitogen-activated protein kinase 8; test: Inhibition of JNK1 (unknown origin) at 1 uM relative to control
# [9] = biological target: Mitogen-activated protein kinase 10 (Rattus norvegicus) (UniProt P49187); test: Inhibition of JNK3 in primary rat cortex neuron cells assessed as reduction in Abeta1-42 induced APP phosphorylation by Western blotting analysis; format: cell-based; settings: Primary cortical neuron
# [10] = biological target: T4, Mitogen-activated protein kinase 14; test: Inhibition of p38alpha (unknown origin) at 1 uM relative to control
# [11] = biological target: Mitogen-activated protein kinase 10 (Rattus norvegicus) (UniProt P49187); test: Inhibition of JNK3 in primary rat cortex neuron cells assessed as reduction in Abeta1-42 induced c-Jun phosphorylation by Western blotting analysis; format: cell-based; settings: Primary cortical neuron
# [12] = Selectivity ratio of IC50 for inhibition of JNK1 (unknown origin) to IC50 for inhibition of JNK3 (unknown origin)
# T4 sequence (Q16539 whole entry): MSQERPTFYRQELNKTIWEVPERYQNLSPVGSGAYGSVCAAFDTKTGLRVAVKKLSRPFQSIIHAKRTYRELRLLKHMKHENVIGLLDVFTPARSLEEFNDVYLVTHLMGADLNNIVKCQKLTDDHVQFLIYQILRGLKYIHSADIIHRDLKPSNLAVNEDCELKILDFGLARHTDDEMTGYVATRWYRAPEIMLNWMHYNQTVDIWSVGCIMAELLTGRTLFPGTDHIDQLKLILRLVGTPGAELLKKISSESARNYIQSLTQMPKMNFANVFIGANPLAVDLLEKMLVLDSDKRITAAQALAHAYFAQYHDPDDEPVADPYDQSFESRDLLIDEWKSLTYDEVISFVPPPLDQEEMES
# Glycogen synthase kinase-3 beta, sequence (P49841 whole entry): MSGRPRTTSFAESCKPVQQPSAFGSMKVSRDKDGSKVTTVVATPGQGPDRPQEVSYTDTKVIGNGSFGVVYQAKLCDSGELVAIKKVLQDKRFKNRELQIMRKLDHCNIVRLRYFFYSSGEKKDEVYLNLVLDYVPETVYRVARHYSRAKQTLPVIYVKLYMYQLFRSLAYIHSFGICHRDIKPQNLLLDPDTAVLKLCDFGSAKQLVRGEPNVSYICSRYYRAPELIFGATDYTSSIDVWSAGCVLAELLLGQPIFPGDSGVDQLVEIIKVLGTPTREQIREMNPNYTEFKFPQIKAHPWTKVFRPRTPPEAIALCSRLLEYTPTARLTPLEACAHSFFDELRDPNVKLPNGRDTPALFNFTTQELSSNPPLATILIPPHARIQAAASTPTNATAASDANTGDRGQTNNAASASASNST
# T1 sequence (P45983 whole entry): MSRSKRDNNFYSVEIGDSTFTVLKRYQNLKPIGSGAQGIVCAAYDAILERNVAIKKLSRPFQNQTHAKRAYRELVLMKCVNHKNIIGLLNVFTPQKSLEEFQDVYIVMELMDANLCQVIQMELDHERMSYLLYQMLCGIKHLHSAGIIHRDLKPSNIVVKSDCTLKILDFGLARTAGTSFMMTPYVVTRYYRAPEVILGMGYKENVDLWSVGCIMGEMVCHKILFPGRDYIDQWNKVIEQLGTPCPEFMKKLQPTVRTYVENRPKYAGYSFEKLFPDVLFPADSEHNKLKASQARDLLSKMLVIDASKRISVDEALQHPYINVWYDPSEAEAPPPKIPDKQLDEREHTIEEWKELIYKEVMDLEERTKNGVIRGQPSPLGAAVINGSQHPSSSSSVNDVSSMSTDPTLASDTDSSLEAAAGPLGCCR
# T2 sequence (P53779 whole entry): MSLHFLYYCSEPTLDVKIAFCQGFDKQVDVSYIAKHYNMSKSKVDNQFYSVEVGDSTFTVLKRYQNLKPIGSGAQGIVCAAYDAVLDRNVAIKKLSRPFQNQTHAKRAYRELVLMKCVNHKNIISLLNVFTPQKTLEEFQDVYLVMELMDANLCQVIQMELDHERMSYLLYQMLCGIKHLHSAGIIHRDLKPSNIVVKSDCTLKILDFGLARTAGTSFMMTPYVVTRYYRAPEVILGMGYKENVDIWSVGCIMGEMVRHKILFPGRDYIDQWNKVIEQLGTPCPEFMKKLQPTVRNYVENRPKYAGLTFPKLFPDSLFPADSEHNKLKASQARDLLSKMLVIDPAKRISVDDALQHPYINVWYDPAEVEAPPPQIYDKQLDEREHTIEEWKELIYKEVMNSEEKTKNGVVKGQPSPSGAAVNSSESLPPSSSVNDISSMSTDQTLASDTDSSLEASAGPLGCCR
# Mitogen-activated protein kinase 10 (Rattus norvegicus), sequence (P49187 whole entry): as the sequence (P53779 whole entry) above, with Q27H, Y32S, I33V, A34V counted along it
compound,measurement,setting,value
CCOC(=O)C1Cc2nc(-c3ccc(Cl)c(Cl)c3)n(-c3ccnc(N[C@H]4CCCN(C(=O)C5CC5)C4)n3)c2C1 (stereo not given in full),viability at 10 µM,Cortical neurone,63.2%
same,IC50,[1],158 nM
same,IC50,[2],1.11 nM
same,IC50,[3],14.8 nM
same,IC50,[4],285 nM
same,IC50,[5],4860 nM
CNC(=O)C1Cc2nc(-c3ccc(F)c(C(F)(F)F)c3)n(-c3ccnc(N[C@H]4CCCN(C(=O)C5CC5)C4)n3)c2C1 (stereo not given in full),IC50,[2],30.6 nM
NC(=O)C1Cc2nc(-c3ccc4c(c3)CCO4)n(-c3ccnc(N[C@H]4CCCN(C(=O)C5CC5)C4)n3)c2C1 (stereo not given in full),viability at 10 µM,Cortical neurone,53%
same,IC50,[2],9.06 nM
NC(=O)C1Cc2nc(-c3ccc(Cl)c(Cl)c3)n(-c3ccnc(N[C@H]4CCN(C(=O)C5CC5)C4)n3)c2C1 (stereo not given in full),IC50,[2],15.4 nM
CCOC(=O)C1Cc2nc(-c3ccc4c(c3)CCO4)n(-c3ccnc(N[C@@H]4CCCN(C(=O)C5CC5)C4)n3)c2C1 (stereo not given in full),IC50,[2],10.4 nM
CCOC(=O)C1Cc2nc(-c3ccc4c(c3)CCO4)n(-c3ccnc(N[C@@H]4CCN(C(=O)C5CC5)C4)n3)c2C1 (stereo not given in full),IC50,[2],21.5 nM
NC(=O)C1Cc2nc(-c3ccc4ccccc4c3)n(-c3ccnc(N[C@@H]4CCCN(C(=O)C5CC5)C4)n3)c2C1 (stereo not given in full),IC50,[2],1.72 nM
NC(=O)C1Cc2nc(-c3ccc4c(c3)CCO4)n(-c3ccnc(N[C@@H]4CCN(C(=O)C5CC5)C4)n3)c2C1 (stereo not given in full),IC50,[2],63 nM
CCOC(=O)C1Cc2nc(-c3ccc4c(c3)OCO4)n(-c3ccnc(N[C@H]4CCN(C(=O)C5CC5)C4)n3)c2C1 (stereo not given in full),IC50,[2],243 nM
NC(=O)C1Cc2nc(-c3ccc4c(c3)CCO4)n(-c3ccnc(N[C@@H]4CCCN(C(=O)C5CC5)C4)n3)c2C1 (stereo not given in full),IC50,[2],8.92 nM
CNC(=O)C1Cc2nc(-c3ccc(F)c(C(F)(F)F)c3)n(-c3ccnc(N[C@H]4CCN(C(=O)C5CC5)C4)n3)c2C1 (stereo not given in full),IC50,[2],601 nM
NC(=O)C1Cc2nc(-c3ccc4c(c3)CCO4)n(-c3ccnc(N[C@H]4CCN(C(=O)C5CC5)C4)n3)c2C1 (stereo not given in full),IC50,[2],87.3 nM
NC(=O)C1Cc2nc(-c3ccc4ccccc4c3)n(-c3ccnc(N[C@@H]4CCN(C(=O)C5CC5)C4)n3)c2C1 (stereo not given in full),IC50,[2],24.9 nM
NC(=O)C1Cc2nc(-c3ccc4ccccc4c3)n(-c3ccnc(N[C@H]4CCN(C(=O)C5CC5)C4)n3)c2C1 (stereo not given in full),IC50,[2],14.8 nM
NC(=O)C1Cc2nc(-c3ccc(Cl)c(Cl)c3)n(-c3ccnc(N[C@H]4CCCN(C(=O)C5CC5)C4)n3)c2C1 (stereo not given in full),inhibition,[6],100%
same,viability at 10 µM,Cortical neurone,62.9%
same,IC50,[1],82.7 nM
same,IC50,[2],0.379 nM
same,IC50,[3],29.4 nM
same,IC50,[4],216 nM
same,inhibition,[7],80%
same,inhibition,[8],80%
same,inhibition,[9],Active
same,inhibition,[10],80%
same,IC50,[5],3890 nM
same,inhibition,[11],Active
CCOC(=O)C1Cc2nc(-c3ccc4ccccc4c3)n(-c3ccnc(N[C@@H]4CCCN(C(=O)C5CC5)C4)n3)c2C1 (stereo not given in full),IC50,[1],56.1 nM
same,IC50,[2],0.779 nM
same,IC50,[3],11.9 nM
same,IC50,[4],84.7 nM
same,IC50,[5],1250 nM
CCOC(=O)C1Cc2nc(-c3ccc(Cl)c(Cl)c3)n(-c3ccnc(N[C@H]4CCN(C(=O)C5CC5)C4)n3)c2C1 (stereo not given in full),IC50,[2],28.2 nM
CCOC(=O)C1Cc2nc(-c3ccc(F)c(C(F)(F)F)c3)n(-c3ccnc(N[C@H]4CCCN(C(=O)C5CC5)C4)n3)c2C1 (stereo not given in full),IC50,[2],52.8 nM
NC(=O)C1Cc2nc(-c3ccc(Cl)c(Cl)c3)n(-c3ccnc(N[C@@H]4CCCN(C(=O)C5CC5)C4)n3)c2C1 (stereo not given in full),inhibition,[6],100%
same,IC50,[1],160 nM
same,IC50,[2],0.73 nM
same,IC50,[3],16.6 nM
same,IC50,[4],70.6 nM
same,inhibition,[7],80%
same,inhibition,[8],80%
same,inhibition,[10],80%
same,IC50,[5],470 nM
NC(=O)C1Cc2nc(-c3ccc(F)c(C(F)(F)F)c3)n(-c3ccnc(N[C@H]4CCN(C(=O)C5CC5)C4)n3)c2C1 (stereo not given in full),IC50,[2],183 nM
CCOC(=O)C1Cc2nc(-c3ccc4c(c3)OCO4)n(-c3ccnc(N[C@@H]4CCCN(C(=O)C5CC5)C4)n3)c2C1 (stereo not given in full),IC50,[2],1.2 nM
CNC(=O)C1Cc2nc(-c3ccc(F)c(C(F)(F)F)c3)n(-c3ccnc(N[C@@H]4CCCN(C(=O)C5CC5)C4)n3)c2C1 (stereo not given in full),IC50,[2],700 nM
CCOC(=O)C1Cc2nc(-c3ccc(Cl)c(Cl)c3)n(-c3ccnc(N[C@@H]4CCN(C(=O)C5CC5)C4)n3)c2C1 (stereo not given in full),IC50,[2],4.33 nM
CCOC(=O)C1Cc2nc(-c3ccc(F)c(C(F)(F)F)c3)n(-c3ccnc(N[C@H]4CCN(C(=O)C5CC5)C4)n3)c2C1 (stereo not given in full),IC50,[2],453 nM
NC(=O)C1Cc2nc(-c3ccc4c(c3)OCO4)n(-c3ccnc(N[C@H]4CCN(C(=O)C5CC5)C4)n3)c2C1 (stereo not given in full),IC50,[2],135 nM
CNC(=O)C1Cc2nc(-c3ccc4ccccc4c3)n(-c3ccnc(N[C@@H]4CCCN(C(=O)C5CC5)C4)n3)c2C1 (stereo not given in full),Ratio IC50,[12],50
same,IC50,[1],75.5 nM
same,IC50,[2],1.08 nM
same,IC50,[3],16.3 nM
same,IC50,[4],37.5 nM
same,IC50,[5],1660 nM
